Laboratory results from patent US20150151008A1, “Contrast Media Taste Masking Formulations” (HOVIONE SCIENTIA LIMITED, priority 2013, published 2015).

Legend:
[1] = Osmotic pressure (osmolality) in an osmometer; format: physicochemical
Protocol: The osmotic pressure analysis measures the driving force of a solution to displace water molecules through a membrane from the medium in one side to the other. Considering the membrane is the esophageal epithelium, high osmolality means loss of water from the surrounding tissues to the GI tract. […] […] The osmolality of the powders produced through micro-encapsulation using spray congealing and spray drying were measured and compared to those of the pure contrast agents.

[2] = Particle size and morphology by PLM / SEM imaging; format: physicochemical; settings: raw, non-encapsulated iopamidol particles

| SMILES | mOsmol at 15 mg l/mL [1] [mOsmol] | mOsmol at 300 mg l/mL [1] [mOsmol] | Diameter of iopamidol particles [2] |
| --- | --- | --- | --- |
| CC(=O)N(CC(O)CO)c1c(I)c(C(=O)NCC(O)CO)c(I)c(C(=O)NCC(O)CO)c1I (centres unmarked) [Iohexol (raw), 1-N,3-N-bis(2,3-dihydroxypropyl)-5-[N-(2,3-dihydroxypropyl)acetamido]-2,4,6-triiodobenzene-1,3-dicarboxamide] | 36 | 413 | – |
| C[C@H](O)C(=O)Nc1c(I)c(C(=O)NC(CO)CO)c(I)c(C(=O)NC(CO)CO)c1I [Iopamidol (raw), 1-N,3-N-bis(1,3-dihydroxypropan-2-yl)-5-[(2S)-2-hydroxypropanamido]-2,4,6-triiodobenzene-1,3-dicarboxamide] | 30 | 572 | approximately 3 μm |
